Laboratory results reported in patent US5756458A, “Stabilized potent GRF analogs” (Pharmacia & Upjohn Company, priority 1995, dated 1998).
Where two headings read alike, the source gives them in different places. Values belong to the substance of their own block, whether it stands above or below them. Where no end group is shown, it is not given here.

Experiments:
[1] = In vitro stability in bovine plasma; type: in vitro ADME
Method: | ^.noteq. Peptides at 0.03 mM were incubated with bovine plasma at | 37° C. for one hr. Aliquots of 0.1 ml were quenched with 2 ml of | 0.2% aqueous trifluoroacetic acid solution and subjected to solid phase | extraction and HPLC analysis as described in T.M. Kubiak et al. Drug Met. | Disp. 17, 393-397 (1989).

[2] = tested on: rat pituitary cell cultures; assay: Growth hormone (GH) release in rat pituitary cell cultures in vitro (FIG. 1); type: cell-based; details: Leu^27 -bGRF(1-29)NH2 assay standard
Method: Effect of analogs of Thr^2, Ala^15, Leu^27 -bGRF(1-29)NH2 on growth hormone (GH) release in rat pituitary cell cultures in vitro. The assay was performed according to procedure of Frohman and Downs, Methods Enzymol. 124, 371-389 (1986). […] Leu^27 -bGRF(1-29)NH2 was used as the assay standard.

meal-fed Holstein steers = assay: Mean serum GH in meal-fed Holstein steers after intravenous injection (FIG. 2); type: in vivo; details: dose of 0.01 nmol/kg (10 pmol/kg)
Method: The enhanced in vivo potency of the compounds of this invention where R19 is Val or Ile is illustrated in FIGS. 1 and 2.
Mean concentration of serum growth hormone (GH) in meal-fed Holstein steers after intravenous injection (10 pmol/kg) of GRF analogs. The assay was performed as described by Moseley et al., J. Endocrinol. 117, 252-259 (1988). Bovine GRF(1-44)NH2 was used as the assay standard.

plasma DPP-IV = molecular target: T1, plasma DPP-IV (Bos taurus, UniProt P81425); assay: Cleavage after residue 2 by plasma DPP-IV on incubation in bovine plasma in vitro; type: in vitro ADME; design: Cleavage after residue 2 (footnote mark ++): key to the marks not given beside the values
T1 construct: from tissue; host or cells: bovine plasma (two different plasma pools)
T1 sequence (P81425 38-765 limits assumed): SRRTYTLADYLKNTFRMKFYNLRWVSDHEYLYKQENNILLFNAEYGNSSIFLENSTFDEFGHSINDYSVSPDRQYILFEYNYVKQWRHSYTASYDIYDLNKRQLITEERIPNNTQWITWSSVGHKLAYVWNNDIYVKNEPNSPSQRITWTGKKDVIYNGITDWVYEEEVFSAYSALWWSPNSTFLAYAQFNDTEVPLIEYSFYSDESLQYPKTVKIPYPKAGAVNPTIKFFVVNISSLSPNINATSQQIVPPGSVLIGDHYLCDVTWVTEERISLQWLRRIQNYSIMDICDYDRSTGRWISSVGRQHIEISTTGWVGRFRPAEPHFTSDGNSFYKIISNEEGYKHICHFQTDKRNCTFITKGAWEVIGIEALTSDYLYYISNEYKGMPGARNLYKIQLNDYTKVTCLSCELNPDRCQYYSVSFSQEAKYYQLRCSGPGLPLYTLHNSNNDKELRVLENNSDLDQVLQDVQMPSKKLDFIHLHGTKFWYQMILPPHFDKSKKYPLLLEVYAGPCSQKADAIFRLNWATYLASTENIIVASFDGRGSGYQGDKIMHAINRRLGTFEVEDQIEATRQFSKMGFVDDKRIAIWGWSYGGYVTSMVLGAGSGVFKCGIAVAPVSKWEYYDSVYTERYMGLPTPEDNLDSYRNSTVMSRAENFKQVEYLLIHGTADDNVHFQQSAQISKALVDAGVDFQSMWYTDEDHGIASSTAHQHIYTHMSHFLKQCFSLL
Method: Evidence of the improved metabolic stability of the compounds of this invention (when compared to native GRF) is illustrated in Table I by the in vitro stability data provided. It is noteworthy that in bovine plasma in vitro, the analogs having Thr^2, Val^2, Ile^2 or Leu^2 were not cleaved after residue 2 by plasma DPP-IV under the experimental conditions used in the study (one hour plasma incubation).
++ No cleavage after residue 2 was observed upon incubation in bovine
plasma in vitro over a 1 hr incubation period.

[3] = tested on: primary cultures of rat anterior pituitary cells; details: GH secretion; cited from earlier work
Steers [4] = type: in vivo, steer
Method: | ^# Steers were injected iv with peptides at the dose of 0.01 nmol/kg | and the procedures were as described in W.M. Moseley et al. J. Endocr. | 117, 253-259 (1988). Relative potency was calculated on the basis of the | area under serum growth hormone (GH) curve monitored for 2 hrs after | treatment.

Steers [5] = type: in vivo, steer; details: STUDY II, subcutaneous 0.75 nmol/kg, area under serum GH curve, 6 hrs after treatment, bGRF(1-44)NH2 = 100
Method: | ^.sctn. Steers were injected subcutaneously with peptides at the dose | of 0.75 nmol/kg. Relative potency was calculated on the basis of the area | under serum GH curve monitored for 6 hrs after treatment.

[6] = bovine plasma, STUDY II, plasma pool 2, peptide 0.03 mM, bovine plasma, 37° C., one hr, read-out: In vitro stability (% Inact peptide after 1 hr)
[7] = bovine plasma, STUDY I, plasma pool 1, peptide 0.03 mM, bovine plasma, 37° C., one hr, read-out: In vitro stability (% Inact peptide after 1 hr)

remaining at 1 h, 0.03 mM [1, 6]: 86.3%
Substance: YLDAIFTNSYRKVLAQLSARKLLQDILNR-NH2 [Leu^2,Ala^15,Leu^27-bGRF(1-29)NH2, reference compound]

remaining at 1 h, 0.03 mM ([1]; plasma, In vitro stability (% Inact peptide after 1 hr)): 91.1%
Cleavage after residue 2 (footnote mark ++) (plasma DPP-IV): ++
DPP-IV related cleavage (plasma DPP-IV): slight DPP-IV related cleavage
Substance: H-YTDAIFTNSYRKVLAQLSARKLLQDILNR-NH2 [Thr^2,Ala^15,Leu^27-bGRF(1-29)NH2]

remaining at 1 h, 0.03 mM [1, 6]: 83.4%
Substance: H-YVDAIFTNSYRKVLAQLSARKLLQDILNR-NH2 [Val^2,Ala^15,Leu^27-bGRF(1-29)NH2]

remaining at 1 h, 0.03 mM [1, 7]: 75.6%
Substance: YTDAIFTNSYRKVLGQLSARKLLQDILNR-NH2 [Thr^2,Leu^27-bGRF(1-29)NH2]

remaining at 1 h, 0.03 mM [1, 7]: 39.8%
remaining at 1 h, 0.03 mM [1, 6]: 46.8%
Substance: YADAIFTNSYRKVLGQLSARKLLQDILNR-NH2 [Leu^27-bGRF(1-29)NH2, reference compound]

The next lines start with the substance.

Substance: H-YTDAIFTNSYRKVLAQLSVRKLLQDILNR-NH2
GH-releasing bioactivity in vitro as compared with Thr^2, Ala^15, Leu^27 -bGRF(1-29)NH2 [2]: increased
In vivo bioactivity compared with native GRF (meal-fed Holstein steers): more bioactive than the native GRF

Substance: YTDAIFTNSYRKVLAQLSLRKLLQDILNR-NH2 [Leu^19]
GH-releasing bioactivity in vitro as compared with Thr^2, Ala^15, Leu^27 -bGRF(1-29)NH2 [2]: deleterious

Substance: H-Tyr-Ala-Asp-Ala-Ile-Phe-Ser-Ser-Ala-Tyr-Arg-Arg-Leu-Leu-Ala-Gln-Leu-Ala- Ser-Arg-Arg-Leu-Leu-Gln-Glu-Leu-Leu-Ala-Arg-NH2 /OH [amide analog] (H-YADAIFSSAYRRLLAQLASRRLLQELLAR-NH2) [29-amino acid analog of hGRF designed by G. Velicelebi, et al., amide form]
Potency relative to hGRF(1-40)OH (times as potent) [3]: 1.57

Substance: H-Tyr-Ala-Asp-Ala-Ile-Phe-Ser-Ser-Ala-Tyr-Arg-Arg-Leu-Leu-Ala-Gln-Leu-Ala- Ser-Arg-Arg-Leu-Leu-Gln-Glu-Leu-Leu-Ala-Arg-NH2 /OH [free acid form] (H-YADAIFSSAYRRLLAQLASRRLLQELLAR-OH) [29-amino acid analog of hGRF designed by G. Velicelebi, et al., free acid form]
Potency relative to hGRF(1-40)OH (times as potent) [3]: 1/6

Substance: YADAIFTNSYRKVLAQLSARKLLQDILNR-NH2 [Ala^15,Leu^27-bGRF(1-29)NH2, reference compound]
remaining at 1 h, 0.03 mM [1, 7]: 56.2%

Substance: bGRF(1-14)NH2 [reference compound]
In vivo relative potency iv (Steers [4]; STUDY I, steers, iv 0.01 nmol/kg, area under serum GH curve, 2 hrs after treatment, native bGRF standard = 100): 100

Substance: YTDAIFTNSYRKVLAQLSIRKLLQDILNR-NH2
GH-releasing bioactivity in vitro as compared with Thr^2, Ala^15, Leu^27 -bGRF(1-29)NH2 [2]: unchanged
In vivo bioactivity compared with native GRF (meal-fed Holstein steers): more bioactive than the native GRF

Substance: H-YIDAIFTNSYRKVLAQLSARKLLQDILNR-NH2 [Ile^2,Ala^15,Leu^27-bGRF(1-29)NH2]
remaining at 1 h, 0.03 mM [1, 6]: 80.3%
Expected potency relative to isomer Leu^2 Ala^15 Leu^27 bGRF(1-29)NH2 when the ED50 of each is determined and compared (Steers [4]; extrapolated from relative in vivo potency at 0.01 nmol/kg, ED50 not determined): 10-20 times
In vivo relative potency sc (Steers [5]): 16c
